Data as given in paper PMC6591177, “Small Molecule IL-36γ Antagonist as a Novel Therapeutic Approach for Plaque Psoriasis” (Scientific Reports, 2019).
Blank lines part the entries; values can stand above or below the molecule they belong to.

Tests used:
[1] = system: IL-1β evoked IL-8 release from HaCaT cells; test: IL-1β evoked IL-8 release assay in HaCaT cells; assay type: cell-based, human
Experimental: (§1) The immortalized human keratinocyte cell line HaCaT and mouse fibroblast NIH-3T3 cell line were maintained in culture in DMEM with 10% fetal bovine serum and 1% penicillin/streptomycin added (Sigma). Cells were seeded in 96-well tissue culture plates (Corning) at 25,000 cells per well and allowed to adhere and recover overnight at 37 °C in an incubator. Cells were rinsed with PBS (Sigma) and treated with cytokines diluted in 200 μL/well of the medium (DMEM with 0.5% FBS and 1% penicillin/streptomycin) as indicated. In inhibition mode, the agonist concentration used was at the EC80 for chemokine production and the cells were pre-treated with inhibitors for 30 min prior to adding the agonist. After 24 h of treatment, supernatants were collected and IL-8 and CXCL1[28] levels were assessed using a custom immunoassay (Meso Scale Discovery). EC50/IC50 values were estimated from a four-parameter logistic fit using Prism software (GraphPad).
(§2) The IL-8 release assays were miniaturized for HTS hit follow-up. Frozen aliquots of HaCaT cells were thawed, added to complete media, mixed, spun down, resuspended in fresh media, and dispensed using the Multidrop384 into black, clear-bottom 384 well plates at a final density of 4000 cells/well. […] Cell viability was assessed using Cell Titer-Glo (Promega) according to the manufacturers’ instructions.

[2] = system: HaCaT cells; test: Cell viability (Cell Titer-Glo) counter screen; assay type: cell-based, human
Experimental: The IL-8 release assays were miniaturized for HTS hit follow-up. Frozen aliquots of HaCaT cells were thawed, added to complete media, mixed, spun down, resuspended in fresh media, and dispensed using the Multidrop384 into black, clear-bottom 384 well plates at a final density of 4000 cells/well. After a 24 h recovery period at 37 °C/5% CO2, the cell plates were rinsed twice with 40 μL/well fresh media. The Biomek FX workstation was then used to add 10 μL/well compounds. Cell plates were then returned to 37 °C for 15 min incubation, followed by the addition of 10 μl/well of IL-36γ (40 ng/ml final). After an additional 5 h of incubation at 37 °C, 5 μl/well of cell supernatant was removed with the Biomek FX and transferred to a 384 well Proxy Plate for IL-8 detection using the HTRF kit from Cisbio. For the IL-1β evoked release of IL-8, the same protocol was followed, but with a final concentration of 1 ng/mL IL-1β and an overnight incubation instead of 5 h. Cell viability was assessed using Cell Titer-Glo (Promega) according to the manufacturers’ instructions.

[3] = system: human IL-36γ evoked CXCL1 release from Human HaCaT cells; test: human IL-36γ evoked CXCL1 release, human HaCaT cells; assay type: cell-based; conditions: ± S.D.
Experimental: as §1

[4] = system: IL-36γ evoked CXCL1 release from Mouse NIH-3T3 cells; test: IL-36γ evoked CXCL1 release, mouse NIH-3T3 cells; assay type: cell-based; conditions: human IL-36γ evoked CXCL1 release, ± S.D.
Experimental: as §1

[5] = biological target: T1, human IL-36γ (Homo sapiens, UniProt Q9NZH8); test: Thermal shift assay, human IL-36γ; assay type: binding; conditions: 100 μM compound; read-out: increase of melting temperature of human IL-36γ
T1 construct: His6-SUMO-human IL-36γ (18–169); His6-SUMO (N, cleaved yes); made in house; host or cells: E. coli BL21 (DE3)
T1 sequence (Q9NZH8 18-169): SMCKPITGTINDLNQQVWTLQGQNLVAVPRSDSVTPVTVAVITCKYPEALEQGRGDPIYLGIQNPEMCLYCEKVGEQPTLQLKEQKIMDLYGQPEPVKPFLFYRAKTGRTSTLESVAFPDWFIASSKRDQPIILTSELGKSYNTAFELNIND
Experimental: (§3) Thermal shift assays[30] were performed on a Roche LightCycler 480 instrument using Sypro Orange Dye (Invitrogen). Reactions consisted of 0.5–2 µM purified recombinant protein in PBS, pH 7.4, a 1/500 dilution of the stock Sypro Orange reagent, and 100 µM test compounds, resulting in a final DMSO concentration of 1%. The samples were heated from 20 °C to 95 °C at a rate of 0.25 °C per second.

[6] = biological target: T2, human IL-36α (Homo sapiens, UniProt Q9UHA7); test: Thermal shift assay / affinity, human IL-36α; assay type: binding; conditions: thermal shift assay at 100 μM (Supplementary Fig. 4)
T2 construct: using recombinant truncated proteins
T2 sequence (Q9UHA7 6-158): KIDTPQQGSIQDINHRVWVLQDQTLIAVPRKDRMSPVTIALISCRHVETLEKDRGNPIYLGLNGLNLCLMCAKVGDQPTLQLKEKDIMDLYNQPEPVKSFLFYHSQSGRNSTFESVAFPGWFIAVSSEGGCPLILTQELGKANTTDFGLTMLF
Experimental: as §3

[7] = system: HaCaT cells; test: mouse IL-36γ induction of CXCL1 release from HaCaT cells; assay type: cell-based, human; conditions: agonist mode
Experimental: as §1

[8] = biological target: T3, human IL-36R/IL-1RAcP extracellular domain (ECD) knob-in-hole Fc (human, UniProt Q9HB29 20-335; Q9NPH3 21-367); test: AlphaScreen or HTRF; TR-FRET, direct binding: receptor heterodimer 1.5 μg/mL with 6 nM Tb-anti-His antibody, Alexa 488 IL-36γ titrated; 1% BSA in 1X PBS; overnight at 4 °C, read at room temperature; ratio 520 nm/495 nm; conditions: both partners purified
T3 construct: human IL-36 receptor subunit (IL-36R), extracellular domain; human IL-1RAcP co-receptor subunit, extracellular domain; Both proteins were engineered with an Fc 'knob-in-hole' to force heterodimerisation; also called hIL-36R/IL-1RAcP ECD knob-in-hole Fc; human IL-36R/IL-1RAcP ECD Fc heterodimer; not shown: His tag (from the nickel column and the Tb-anti-His detection)
T3 sequence (looked up) 1: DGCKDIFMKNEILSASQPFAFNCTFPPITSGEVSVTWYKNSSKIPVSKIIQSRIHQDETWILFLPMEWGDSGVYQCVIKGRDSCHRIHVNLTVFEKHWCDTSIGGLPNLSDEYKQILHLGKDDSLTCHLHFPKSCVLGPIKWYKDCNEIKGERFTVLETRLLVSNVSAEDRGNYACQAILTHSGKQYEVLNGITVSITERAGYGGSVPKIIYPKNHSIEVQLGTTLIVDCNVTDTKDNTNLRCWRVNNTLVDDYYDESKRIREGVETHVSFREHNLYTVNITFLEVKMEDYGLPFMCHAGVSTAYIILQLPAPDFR
T3 sequence (looked up) 2: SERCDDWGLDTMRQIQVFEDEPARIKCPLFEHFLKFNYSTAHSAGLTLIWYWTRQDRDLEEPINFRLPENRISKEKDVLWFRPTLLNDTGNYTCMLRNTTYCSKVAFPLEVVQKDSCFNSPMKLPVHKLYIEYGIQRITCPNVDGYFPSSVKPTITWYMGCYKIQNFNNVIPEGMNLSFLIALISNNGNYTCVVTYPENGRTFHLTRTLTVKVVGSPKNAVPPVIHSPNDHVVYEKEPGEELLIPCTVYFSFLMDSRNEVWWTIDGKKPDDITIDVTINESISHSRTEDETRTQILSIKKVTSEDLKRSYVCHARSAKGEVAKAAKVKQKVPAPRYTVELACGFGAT

[9] = system: IL-36γ evoked IL-8 release from HaCaT cells; test: IL-36γ evoked IL-8 release assay from HaCaT cells; assay type: cell-based, human; conditions: agonist mode, n = 4
Experimental: as §1, §2

[10] = biological target: T4, IL-36 receptor (Homo sapiens, UniProt Q9HB29); test: IL-8 release assay in HaCaT cells
T4 chain: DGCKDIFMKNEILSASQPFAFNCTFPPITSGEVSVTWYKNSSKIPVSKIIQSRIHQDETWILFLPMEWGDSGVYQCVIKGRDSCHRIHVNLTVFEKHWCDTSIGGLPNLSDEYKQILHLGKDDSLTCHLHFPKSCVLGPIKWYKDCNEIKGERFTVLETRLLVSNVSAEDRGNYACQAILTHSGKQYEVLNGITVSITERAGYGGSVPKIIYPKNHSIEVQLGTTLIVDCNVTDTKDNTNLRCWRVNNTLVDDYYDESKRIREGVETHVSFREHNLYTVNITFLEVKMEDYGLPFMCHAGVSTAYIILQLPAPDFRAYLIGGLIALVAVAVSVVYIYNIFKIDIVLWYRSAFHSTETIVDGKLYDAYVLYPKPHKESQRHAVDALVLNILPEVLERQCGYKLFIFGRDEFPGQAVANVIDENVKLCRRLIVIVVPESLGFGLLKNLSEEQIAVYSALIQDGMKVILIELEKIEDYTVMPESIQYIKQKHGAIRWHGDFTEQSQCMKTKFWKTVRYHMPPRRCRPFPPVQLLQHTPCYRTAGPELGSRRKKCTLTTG

[11] = biological target: T3, human IL-36R/IL-1RAcP extracellular …; test: AlphaScreen or HTRF; TR-FRET, competitive mode: unlabeled human IL-36γ or IL-36Ra titrated against 6 nM Alexa 488 human IL-36γ, receptor heterodimer 1.5 μg/mL, 6 nM Tb-anti-His antibody; Ki by the Cheng-Prusoff equation; conditions: both partners purified

Molecule: COC(c1ccccc1)(c1ccccc1)C(Oc1nc(C)cc(-c2ccc(C)c(N)c2)n1)C(=O)O (centres unmarked) [Compound A-706]
- activity in the hIL-1β induced IL-8 release assay [1]: no activity
- cellular toxicity [2]: no activity in the hIL-1β induced IL-8 release assay or cellular toxicity
- Ki [3]: 121 ± 32 nM
- Ki [4]: 181 ± 54 nM
- ΔTm at 100 µM [5]: 5.4 °C
- binding / affinity to human IL-36α [6]: do not bind

B1: mouse IL-36γ: mouse IL-36γ cytokine (protein, UniProt Q8R460 13-164, looked up)
Interleukin-36 gamma: GRETPDFGEVFDLDQQVWIFRNQALVTVPRSHRVTPVSVTILPCKYPESLEQDKGIAIYLGIQNPDKCLFCKEVNGHPTLLLKEEKILDLYHHPEPMKPFLFYHTRTGGTSTFESVAFPGHYIASSKTGNPIFLTSKKGEYYNINFNLDIKS
- induction of CXCL1 release from HaCaT cells [7]: cannot induce CXCL1 release

B3: human IL-36γ: recombinant human IL-36γ (18–169) cytokine, IL-36R agonist (protein)
chain: SMCKPITGTINDLNQQVWTLQGQNLVAVPRSDSVTPVTVAVITCKYPEALEQGRGDPIYLGIQNPEMCLYCEKVGEQPTLQLKEQKIMDLYGQPEPVKPFLFYRAKTGRTSTLESVAFPDWFIASSKRDQPIILTSELGKSYNTAFELNIND
modifications: left off: His6, N-terminal, cleaved | SUMO, N-terminal, cleaved
notes: recombinant human IL-36γ (18–169) cytokine, IL-36R agonist
- EC50 [9]: 0.2 ± 0.1 nM

Further lines, results first:

- EC50 [8]: 0.3 nM
B2: N-terminal labeled Alexa 488 human IL-36γ (ligand, UniProt Q9NZH8 18-169, looked up)
chain: SMCKPITGTINDLNQQVWTLQGQNLVAVPRSDSVTPVTVAVITCKYPEALEQGRGDPIYLGIQNPEMCLYCEKVGEQPTLQLKEQKIMDLYGQPEPVKPFLFYRAKTGRTSTLESVAFPDWFIASSKRDQPIILTSELGKSYNTAFELNIND
modifications: Alexa Fluor 488 (N-hydroxysuccinimidyl ester); called N-terminal labeled
notes: human IL-36γ, residues 18-169; Same protein as m3, with the dye; also called Alexa-488 labeled hIL-36γ; NHS-AlexaFluor-488 conjugated human IL-36γ; not shown: His6, N-terminal, cleaved; SUMO, N-terminal, cleaved

- Ki [10]: 0.6 nM
- Ki [11]: 2 nM
B4: human IL-36Ra (2–155) (ligand, UniProt Q9UBH0 2-155, looked up)
chain: VLSGALCFRMKDSALKVLYLHNNQLLAGGLHAGKVIKGEEISVVPNRWLDASLSPVILGVQGGSQCLSCGVGQEPTLTLEPVNIMELYLGAKESKSFTFYRRDMGLTSSFESAAYPGWFLCTVPEADQPVRLTQLPENGGWNAPITDFYFQQCD
notes: human IL-36 receptor antagonist (IL-36Ra), residues 2-155; also called hIL-36Ra; recombinant soluble hIL-36Ra; source: E. coli BL21 (DE3), purified (nickel column, ULP1 cleavage, Superdex 75 gel filtration); not shown: His6, N-terminal, cleaved; SUMO, N-terminal, cleaved
